This passage reports Kd results from paper doi:10.1101/2025.11.27.691040v1 (biorxiv, 2025).

For the assay, the target named is T1, AtCKA1 (Arabidopsis thaliana, UniProt Q08467).
T1 sequence (Q08467 76-409): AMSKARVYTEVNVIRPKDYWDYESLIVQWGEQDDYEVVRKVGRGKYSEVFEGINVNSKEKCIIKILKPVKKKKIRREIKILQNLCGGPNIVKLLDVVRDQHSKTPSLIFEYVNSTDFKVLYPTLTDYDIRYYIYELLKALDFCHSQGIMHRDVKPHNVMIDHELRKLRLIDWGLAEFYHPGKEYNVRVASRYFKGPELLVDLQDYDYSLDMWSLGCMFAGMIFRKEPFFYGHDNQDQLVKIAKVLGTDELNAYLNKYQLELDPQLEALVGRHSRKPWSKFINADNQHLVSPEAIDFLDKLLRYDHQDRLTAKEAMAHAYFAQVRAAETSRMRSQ
The assay can be described thus: biochemical.

For the molecule `O=P(O)(O)O[C@H]1[C@H](OP(=O)(O)O)[C@@H](OP(=O)(O)O)[C@H](OP(=O)(O)O)[C@@H](OP(=O)(O)O)[C@H]1OP(=O)(O)O` [InsP6], the Kd (as a rule, the free concentration of one partner at which half of the binding sites on the other are occupied at equilibrium, for simple one-to-one binding) was determined as 2000 nM.
